Test results: US10611740B2, “Aryl dihydro-2H-benzo[b][1,4]oxazine sulfonamide and related compounds for use as agonists of RORγ and the treatment of disease” (Lycera Corporation, priority 2015, dated 2020)

What was measured:
RORγ-LBD = target: T1, RORγ-LBD (Homo sapiens, UniProt P51449); assay: RORγ-Ligand Binding Domain (LBD) TR-FRET Assay; format: biochemical;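 as to TR-FRET Assay Max Response: 665/615 nm ratio relative to signal without ursolic acid or compound set at 100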
T1 construct: made in house; host or cells: SF9 cells (baculovirus)
T1 sequence (P51449 269-508 limits assumed): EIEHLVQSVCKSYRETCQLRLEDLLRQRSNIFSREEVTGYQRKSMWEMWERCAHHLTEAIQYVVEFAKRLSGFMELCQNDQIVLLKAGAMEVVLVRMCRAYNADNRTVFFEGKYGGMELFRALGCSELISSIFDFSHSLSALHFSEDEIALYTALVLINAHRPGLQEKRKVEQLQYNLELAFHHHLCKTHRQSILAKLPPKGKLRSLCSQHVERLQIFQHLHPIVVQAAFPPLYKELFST
Procedure, shortened: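 This TR-FRET coactivator assay pairs baculovirus-expressed His-RORγ-LBD (~3 nM final) with biotin-SRC1 LXXLL peptide at 200 nM final in pH 7.0 Tris/KCl/EDTA/DTT/BSA buffer.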

Gal4-RORγ-LBD = target: T2, Gal4-RORγ-LBD (Homo sapiens, UniProt P51449); assay: Gal4-RORγ Luciferase Reporter Assay in HEK-293T Cells; format: cell-based; conditions: HEK-293 cells, 2 μM ursolic acid
T2 construct: expressed in transfected cells; host or cells: HEK-293 cells (pcDNA3.1neo plasmid)
T2 sequence (P51449 269-508 limits assumed): T1 sequence (P51449 269-508 limits assumed)
Procedure, shortened: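 Luminescence read-out (One-Glo, 10 min RT) after overnight compound exposure at 37 °C in HEK-293 cells carrying Gal4-RORγ-LBD plus a Gal4-luciferase reporter, in the presence of 2 μM ursolic acid. Max Response is the upper plateau from a 4-parameter logistic fit, normalized to untreated signal = 100.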

| EC50 (RORγ-LBD) [nM] | EC50 (Gal4-RORγ-LBD) [nM] | Compound | TR-FRET Assay Max Response (RORγ-LBD) | Gal4-RORγ Assay Max Response (Gal4-RORγ-LBD) |
| --- | --- | --- | --- | --- |
| < 500 | 500 to 5000 | CC(C)(C[C@H]1CN(S(=O)(=O)c2cccc(C(F)(F)F)c2)c2cc(-c3ccccc3C#N)ccc2O1)C(=O)O [Compound 32AF, (S)-3-(6-(2-cyanophenyl)-4-((3-(trifluoromethyl)phenyl)sulfonyl)-3,4-dihydro-2H-benzo[b][1,4]-oxazin-2-yl)-2,2-dimethyl-propanoic acid] | *** (The symbol “***” indicates a value in the range of greater than 150 to 200) | ** (The symbol “**” indicates a value in the range of greater than 90 to 150) |
| < 500 | < 500 | CC(C)(C[C@H]1CN(S(=O)(=O)c2cccc(C(F)(F)F)c2)c2cc(-c3cccc(C(F)F)n3)ccc2O1)C(=O)O [Compound 32AK, (S)-3-(6-(6-(difluoromethyl)-pyridin-2-yl)-4-((3-(trifluoro-methyl)phenyl)sulfonyl)-3,4-dihydro-2H-benzo[b][1,4]oxazin-2-yl)-2,2-dimethylpropanoic acid] | ** (The symbol “**” indicates a value in the range of greater than 90 to 150) | * (The symbol “*” indicates a value in the range of 25 to 90) |
| < 500 | < 500 | CC(C)(C[C@H]1CN(S(=O)(=O)c2cccc(C(F)(F)F)c2)c2cc(-c3cccc(C(F)F)c3)ccc2O1)C(=O)O [Compound 32AL, (S)-3-(6-(3-(difluoromethyl)-phenyl)-4-((3-(trifluoromethyl)-phenyl)sulfonyl)-3,4-dihydro-2H-benzo[b][1,4]oxazin-2-yl)-2,2-dimethylpropanoic acid] | ** (The symbol “**” indicates a value in the range of greater than 90 to 150) | ** (The symbol “**” indicates a value in the range of greater than 90 to 150) |
| < 500 | < 500 | Cc1ccc(C)c(-c2ccc3c(c2)N(S(=O)(=O)c2cccc(C(F)(F)F)c2)C[C@H](CC(C)(C)C(=O)O)O3)c1 [Compound 32AT, (S)-3-(6-(2,5-dimethylphenyl)-4-((3-(trifluoromethyl)phenyl)-sulfonyl)-3,4-dihydro-2H-benzo[b][1,4]oxazin-2-yl)-2,2-dimethylpropanoic acid] | ** (The symbol “**” indicates a value in the range of greater than 90 to 150) | ** (The symbol “**” indicates a value in the range of greater than 90 to 150) |
| < 500 | < 500 | CC(C)(C[C@H]1CN(S(=O)(=O)c2cccc(C(F)(F)F)c2)c2cc(-c3c(Cl)cccc3Cl)ccc2O1)C(=O)O [Compound 32AU, (S)-3-(6-(2,6-dichlorophenyl)-4-((3-(trifluoromethyl)phenyl)-sulfonyl)-3,4-dihydro-2H-benzo[b][1,4]oxazin-2-yl)-2,2-dimethylpropanoic acid] | ** (The symbol “**” indicates a value in the range of greater than 90 to 150) | ** (The symbol “**” indicates a value in the range of greater than 90 to 150) |

Second part, the molecule before the results:

| Compound | EC50 (RORγ-LBD) [nM] | EC50 (Gal4-RORγ-LBD) [nM] | TR-FRET Assay Max Response (RORγ-LBD) | Gal4-RORγ Assay Max Response (Gal4-RORγ-LBD) |
| --- | --- | --- | --- | --- |
| COc1cc(F)cc(-c2ccc3c(c2)N(S(=O)(=O)c2cccc(C(F)(F)F)c2)C[C@H](CC(C)(C)C(=O)O)O3)c1 [Compound 32AG, (S)-3-(6-(3-fluoro-5-methoxy-phenyl)-4-((3-(trifluoromethyl)-phenyl)sulfonyl)-3,4-dihydro-2H-benzo[b][1,4]oxazin-2-yl)-2,2-dimethylpropanoic acid] | < 500 | < 500 | **** (The symbol “****” indicates a value greater than 200) | ** (The symbol “**” indicates a value in the range of greater than 90 to 150) |
| COc1cc(Cl)cc(-c2ccc3c(c2)N(S(=O)(=O)c2cccc(C(F)(F)F)c2)C[C@H](CC(C)(C)C(=O)O)O3)c1 [Compound 32AH, (S)-3-(6-(3-chloro-5-methoxy-phenyl)-4-((3-(trifluoromethyl)-phenyl)sulfonyl)-3,4-dihydro-2H-benzo[b][1,4]oxazin-2-yl)-2,2-dimethylpropanoic acid] | < 500 | < 500 | *** (The symbol “***” indicates a value in the range of greater than 150 to 200) | ** (The symbol “**” indicates a value in the range of greater than 90 to 150) |
| CC(C)(C[C@H]1CN(S(=O)(=O)c2cccc(C(F)(F)F)c2)c2cc(-c3cc(F)cc(Cl)c3F)ccc2O1)C(=O)O [Compound 32AI, (S)-3-(6-(3-chloro-2,5-difluoro-phenyl)-4-((3-(trifluoromethyl)-phenyl)sulfonyl)-3,4-dihydro-2H-benzo[b][1,4]oxazin-2-yl)-2,2-dimethylpropanoic acid] | < 500 | < 500 | *** (The symbol “***” indicates a value in the range of greater than 150 to 200) | ** (The symbol “**” indicates a value in the range of greater than 90 to 150) |
| COc1cc(S(=O)(=O)N2C[C@H](CCC(C)(C)C(=O)O)Oc3ccc(-c4cccc(C(F)(F)F)n4)cc32)ccc1F [Compound 32AJ, (S)-4-(4-((4-fluoro-3-methoxy-phenyl)sulfonyl)-6-(6-(trifluoro-methyl)pyridin-2-yl)-3,4-dihydro-2H-benzo[b][1,4]oxazin-2-yl)-2,2-dimethylbutanoic acid] | < 500 | < 500 | ** (The symbol “**” indicates a value in the range of greater than 90 to 150) | ** (The symbol “**” indicates a value in the range of greater than 90 to 150) |
| CC(C)(C[C@@H]1CN(S(=O)(=O)c2cccc(C(F)(F)F)c2)c2cc(-c3cc(F)cc(Cl)c3F)ccc2O1)C(=O)O [Compound 32AO, (R)-3-(6-(3-chloro-2,5-difluoro-phenyl)-4-((3-(trifluoromethyl)-phenyl)sulfonyl)-3,4-dihydro-2H-benzo[b][1,4]oxazin-2-yl)-2,2-dimethylpropanoic acid] | < 500 | 500 to 5000 | ** (The symbol “**” indicates a value in the range of greater than 90 to 150) | * (The symbol “*” indicates a value in the range of 25 to 90) |
| Cc1ccc(Cl)cc1-c1ccc2c(c1)N(S(=O)(=O)c1cccc(C(F)(F)F)c1)C[C@H](CC(C)(C)C(=O)O)O2 [Compound 32AR, (S)-3-(6-(5-chloro-2-methyl-phenyl)-4-((3-(trifluoromethyl)-phenyl)sulfonyl)-3,4-dihydro-2H-benzo[b][1,4]oxazin-2-yl)-2,2-dimethylpropanoic acid] | < 500 | < 500 | ** (The symbol “**” indicates a value in the range of greater than 90 to 150) | ** (The symbol “**” indicates a value in the range of greater than 90 to 150) |
| Cc1cc(C)cc(-c2ccc3c(c2)N(S(=O)(=O)c2cccc(C(F)(F)F)c2)C[C@H](CC(C)(C)C(=O)O)O3)c1 [Compound 32AS, (S)-3-(6-(3,5-dimethylphenyl)-4-((3-(trifluoromethyl)phenyl)-sulfonyl)-3,4-dihydro-2H-benzo[b][1,4]oxazin-2-yl)-2,2-dimethylpropanoic acid] | < 500 | < 500 | ** (The symbol “**” indicates a value in the range of greater than 90 to 150) | ** (The symbol “**” indicates a value in the range of greater than 90 to 150) |
